In patent US8338481B2, “Alkoxyalkyl S-prenylthiosalicylates for treatment of cancer” (Ramot at Tel-Aviv University Ltd., priority 2009, dated 2012):
Like-named read-outs stand apart in the source and are kept apart here.

Tests used:
[1] = test system: Panc-1 cells (human pancreatic carcinoma cell line); settings: previously determined (Weisz et al., Oncogene 1999), read-out: IC50 of growth inhibition; cited from earlier work
[2] = test system: U87 cells (human glioblastoma cell line); settings: U-87 cells; previously determined (Blum et al., Cancer Research 2005); read-out: IC50 of growth inhibition; cited from earlier work
[3] = test system: Panc-1 cells (human pancreatic carcinoma cell line); assay: Inhibition of Panc-1 cell growth (cell counting); type: cell-based
Description: (§1) Human pancreatic cancer Panc-1 cells were obtained from American Tissue Culture Collection (ATCC) and grown in Dulbecco's modified Eagle medium (DMDM) containing 10% fetal calf serum, 2 mM L-glutamine, 100 U/mL penicillin, and 100 μg/mL streptomycin. The cells were incubated at 37° C. in a humidified atmosphere of 95% air and 5% CO2. Cells were plated in 24-well plates at a density of 5000 cells per well and grown for 24 hours. The medium was then replaced by a medium containing the desired concentration of methoxymethyl S-farnesylthiosalicylic acid and 0.1% DMSO, or by a medium containing 0.1% DMSO (control). Cells were maintained in culture for 5-7 days and then counted. Data are expressed as a percentage: (number cells in drug-treated culture/number cells in control culture×100). Experiments were performed twice in quadruplicates and means±SD are represented graphically in FIG. 1.
(§2) To establish efficacy of the newly synthesized compound FTS-MOME, Applicants prepared cell growth assays using human cancer cell lines. […]
First, to examine the effects of FTS-MOME on panc-1 cell growth (i.e., growth inhibition), the cells were incubated with and without FTS-MOME for five (5) days and the live cells were counted as a percentage of control over concentration of FTS-MOME (μM). […]

[4] = test system: U87 cells (human glioblastoma cell line); assay: Inhibition of U87 cell growth (cell counting); type: cell-based; settings: U-87 cells
Description: as §1, with “glioblastoma U87” for “pancreatic cancer Panc-1”, “drug treated” for “drug-treated”, “control×100). Experiment was” for “control culture×100). Experiments were”, “2.” for “1.”
as §2
Next, to examine the effects of FTS-MOME on U-87 cell growth (i.e., growth inhibition), the cells were incubated with and without FTS-MOME for five (5) days and the live cells were counted as a percentage of control over concentration of FTS-MOME (μM). […]

[5] = concentration range of 6-100 μM, five days

| IC50 ([3]; Homo sapiens, 120 h, incubated five days, live cells counted as percentage of control, read-out: IC50 (concentration causing 50% inhibition of cell growth)) [µM] | IC50 ([4]; Homo sapiens, U-87 MG, 120 h, incubated five days, live cells counted as percentage of control, read-out: IC50 (concentration causing 50% inhibition of cell growth)) [µM] | Structure (SMILES) | IC50 [1] [µM] | IC50 [2] [µM] | live cancer cell number [3, 5] | live cancer cell number [4, 5] |
| --- | --- | --- | --- | --- | --- | --- |
| – | – | CC(C)=CCC/C(C)=C/CC/C(C)=C/CSc1ccccc1C(=O)O [FTS, S-trans, trans-farnesylthiosalicylic acid] | 35 | 50 | – | – |
| 15 | 15 | COCOC(=O)c1ccccc1SC/C=C(\C)CC/C=C(\C)CCC=C(C)C [FTS-MOME, methoxymethyl S-farnesylthiosalicylate] | – | – | dose-dependent decrease | dose-dependent decrease |
